Reference: US20010049372A1, “Antiviral nucleoside analogues” (BioChem Pharma Inc., priority 1998, published 2001)
Read-outs that look alike come from different tables or passages of the source.

Key:
HepG-2 = assay: Cellular toxicity by [3H]-thymidine uptake; type: cell-based; conditions: Table 4, 72 hrs
Method: (§1) The cellular toxicity of the compounds were assessed on various cells using [^3H]-thymidine uptake. Various cells, including Molt-4, HT1080, DU-145, HepG-2 and HSF, were plated at a concentration of 1-2×10^3 cells per well (96 well plates). After a 24 hr incubation period, 10-fold serial diluted compounds (b 10^−4 M to 10^−10 M) were added to the culture medium and the cells were further incubated for 72 hrs. [^3H]-thymidine was added during the final 18 hr incubation period. After incubation with the [^3H]-thymidine, the cells were washed once with PBS, treated with trypsin if the cells were adherent, and then resuspended in water (hypotonic lysing of cells). The cellular extract was applied directly to a Tomtec Harvester 96. Using this instrument the extracted DNA is adsorbed onto filters, washed and the incorporated [^3H]-thymidine is then counted. The 50% cytotoxic concentration (CC50) was determined by comparing the radioactive counts per minute of the samples in the presence of the compounds against the control. The cellular toxicity of the compounds was also tested by WST-1 staining through assessing proliferation of MT-2, H9, Jurkat, U937, and CBMCs. The established cell lines were cultured in RPMI medium in 96-well plates at a density of 5×10^4 cells/well while CBMCs were plated at a concentration of 0.5×10^6/well. A 10-fold serial diluted (10^−4-10^−7 M) compound was added at day zero. At day 4, the cells were passaged by changing half medium containing appropriately diluted compound. The cell activities were assessed at day 7 using the WST-1 reagent (Boehringer Mannheim) following the protocol provided by the supplier.
(§2) Cellular toxicity was assessed by [^3H]thymidine uptake (de Muys et al. 1999) and WST-1 staining. In the [^3H]thymidine uptake experiments, Molt-4, HT1080, DU-145, HepG2 and HSF, were plated at a concentration of 1-2×10^3 cells per well (96 well plates). PHA-stimulated PBMCs were cultured at a concentration of 4×10^4 cells per well. Following a 24 hr pre-incubation period, test compounds (10^−4 M to 10^−10 M) were added and the cells were incubated for an additional 72 hrs. [^3H]thymidine was added during the final 18 hr incubation period. The cells were then washed once with PBS, treated with trypsin if the cells were adherent, and resuspended in water (hypotonic lysing of cells). The cellular extract was applied directly to a Tomtec Harvester 96. The 50% cytotoxic concentration (CC50) was determined by comparing the radioactive counts per minute obtained from drug-tested samples to those obtained from the control (untreated) cells.

Molt-4 = assay: Cellular toxicity by [3H]-thymidine uptake; type: cell-based; conditions: Table 4, 72 hrs
Method: as §1, §2

DU-145 = assay: Cellular toxicity by [3H]-thymidine uptake; type: cell-based; conditions: Table 4, 72 hrs
Method: as §1, §2

HSF = assay: Cellular toxicity by [3H]-thymidine uptake; type: cell-based; conditions: Table 4, 72 hrs
Method: as §1, §2

HT1080 = assay: Cellular toxicity by [3H]-thymidine uptake; type: cell-based; conditions: Table 4, 72 hrs
Method: as §1, §2

[1] = Pharmacokinetic study in male and female rats (single dose iv or po); type: in vivo, rat; conditions: parameters of DAPD & DXG after administration of DAPD
Method: Compound A(−), DAPD, and DXG were administrated as a single dose, either intravenously through the jugular vein at 10 mg/kg or orally at 20, 125, 500, 1000 or 2000 mg/kg. All rats were fasted for 12 hours prior to po dosing treatment. The vehicle used for both iv and po administrations was 0.1% carboxymethylcellulose and 0.1% Tween 80 in distilled water, acidified to pH 3.15 with 1N HCl. Blood samples were taken from rats at the times shown in the schedule below for all oral dosing. From a total of 10 rats for each administration, seven time points were taken for the intravenous through the jugular vein dosing (2, 5, 15, 30, 60, 120 and 240 min) and for the oral dosing (5-360 min) at 20 mg/kg, whereas two additional time points at 480 and 1440 min were taken for the oral doses of 125-2000 mg/kg. As a result, each time point was in quadruplicate, except for the 1440 minute time point when blood samples were taken through the jugular vein from all the rats prior to being euthanized.
Blood samples (1 ml) were collected from the rat tails into a vacutainer containing EDTA (3 ml) for both iv and po administrations. Plasma samples were prepared by centrifugation at 2000×g for 15 minutes at 4° C.
Plasma samples (diluted to 1 ml with water) were loaded onto the Abselut Nexus sorbent (#1210-3100) and drawn through under low vacuum (approximately 5′′ Hg). One milliliter of deionized water was added to the sorbent and drawn through under vacuum. The extraction column was dried for 1 minute using a high vacuum (>10′′ Hg). One milliliter of methanol was added to the Abselut Nexus column and the eluent was collected at 1-2 ml/min. The eluent was evaporated to dryness using a Speed Vac, and the samples were reconstituted in 120 μl H2O; 100 μl was used for injection.

CBMCs = assay: Cellular toxicity by WST-1 staining; type: cell-based; conditions: Table 4, day 7, read-out: CC50 (μM) WST-1 CBMC
Method: as §1
(§3) In the WST-1 staining experiments, cell lines were cultured in RPMI medium in 96-well plates at a density of 5×10^4 cells/well. CBMCs were plated at a concentration of 0.5×10^6/well. Compounds (10^−4-10^−7 M) were added at day zero. Cell viability was assessed on day 7 using the WST-1 reagent (Boehringer Mannheim) following the protocol provided by the supplier.

[2] = Preliminary pharmacokinetic study in male adult rats; type: in vivo; conditions: rat
Method: The bioavailability of the compounds were evaluated in male adult rats dosed intravenously through the tail vein (5 mg/kg) and orally (20 mg/kg). The plasma samples were collected at 2, 5, 15, 30, 60, 90, 120 and 240 minutes after intravenous dosing and 5, 15, 30, 60, 90, 120, 240 and 360 minutes after oral dosing.
Blood samples (1 ml) were collected from the rat tails into a vacutainer containing EDTA (3 ml) for both iv and po administrations. Plasma samples were prepared by centrifugation at 2000 ×g for 15 minutes at 4° C.
Plasma samples (diluted to 1 ml with water) were loaded onto the Abselut Nexus sorbent (# 1210-3100 ) and drawn through under low vacuum (approximately 5′′ Hg). One milliliter of deionized water was added to the sorbent and drawn through under vacuum. The extraction column was dried for 1 minute using a high vacuum (>10′′ Hg). One milliliter of methanol was added to the Abselut Nexus column and the eluent was collected at 1-2 ml/min. The eluent was evaporated to dryness using a Speed Vac, and the samples were reconstituted in 120 μl H2O; 100 μl was used for injection.

PBMCs = assay: Cellular toxicity by [3H]-thymidine uptake; type: cell-based, human; conditions: Table 4, 72 hrs
Method: as §2

HIV-1IIIB = assay: Anti-HIV-1 antiviral assay with HIV-1IIIB in various cell types (RT activity); type: cell-based; conditions: HIV-1IIIB, MT-2 cells, determined by RT activity; read-out: EC50 (μM) ± S.D. in MT-2 cells
Method: ANTIVIRAL ASSAYS. The anti-HIV-1 activity of the compound A (−) were assessed by employing HIV-1IIIB in a variety of cell types as previously described (Gu et al., 1992, 1994, 1999; Rando et al., 1995; Salomon et al., 1994). Briefly, cells were incubated with virus at a multiplicity of infection (MOI) of 0.005 for T cell assays and an MOI of 0.5 for monocytic cell assays for 3 hrs. Unbound virus was then removed by washing the cells, followed by seeding the cells into a 96-well plate. The infected cells were cultured in the presence of a serial concentrations of the test compound for 5-7 days. The anti-HIV-1 efficacy was determined by testing for HIV-1 RT activity or p24 level in the cell culture supernatants. All assays were performed in duplicate. Zidovudine and/or lamivudine were used as controls in each experiment.
Activity of the compound A (−) against HIV-1 in various cells. Anti-HIV-1 activity of the compound A (−) were tested in different types of cells, including human peripheral […] cells (PBMCs), T-cell (MT-2 and MT-4) and monocytic cell (U937) lines. The compound A (−) had submicromolar EC50s against HIV-1IIIB in different types of cells tested (Table 2).

[3] = Body weight gaining effect in mice; type: in vivo; conditions: intraperitoneally, mice (CDI, adult, male), 50 mg/kg/day for 5 days
[4] = Cellular toxicity by [3H]-thymidine uptake; type: cell-based; conditions: human
Method: as §1, §2

[5] = Cellular toxicity by WST-1 staining; type: cell-based; conditions: human, CBMCs, Table 4, day 7, read-out: CC50 (μM) WST-1 CBMC
Method: as §1, §3

Structure (SMILES): Nc1nc(N)c2ncn([C@H]3CO[C@@H](CO)O3)c2n1 [DAPD, (−)-β-D -2,6-diaminopurine dioxolane]
- CC50 (HepG-2; read-out: CC50 (μM) [^3H-]TTP incorporation in: HepG2): ≥ 500 µM
- CC50 (Molt-4; read-out: CC50 (μM) [^3H-]TTP incorporation in: Molt-4): > 500 µM
- CC50 (DU-145; read-out: CC50 (μM) [^3H-]TTP incorporation in: U-145): > 500 µM
- CC50 (μM) [^3H-]TTP incorporation in: HSF (HSF): 500/350
- CC50 (HT1080; read-out: CC50 (μM) [^3H-]TTP incorporation in: HT1080): > 500 µM
- AUC ([1]; female rat, iv 10 mg/kg): 357.9 µg·min/mL
- Cmax ([1]; female rat, iv 10 mg/kg): 22100 ng/mL
- T1/2 ([1]; female rat, iv 10 mg/kg): 31.5 min
- AUC ([1]; female rat, po 20 mg/kg): 307.2 µg·min/mL
- Bioavailability (%) ([1]; female rat, po 20 mg/kg): 43%
- Cmax ([1]; female rat, po 20 mg/kg): 2500 ng/mL
- T1/2 ([1]; female rat, po 20 mg/kg): 31.3 min
- Tmax ([1]; female rat, po 20 mg/kg): 45 min
- AUC ([1]; male rat, iv 10 mg/kg): 271.2 µg·min/mL
- Cmax ([1]; male rat, iv 10 mg/kg): 16200 ng/mL
- T1/2 ([1]; male rat, iv 10 mg/kg): 36.2 min
- AUC ([1]; male rat, po 20 mg/kg): 196.5 µg·min/mL
- Bioavailability (%) ([1]; male rat, po 20 mg/kg): 36%
- Cmax ([1]; male rat, po 20 mg/kg): 1960 ng/mL
- T1/2 ([1]; male rat, po 20 mg/kg): 34 min
- Tmax ([1]; male rat, po 20 mg/kg): 35 min
- CC50 (CBMCs): > 100 µM
- AUC ([2]; oral 20 mg/kg): 1890 ng·h/mL
- Cmax ([2]; oral 20 mg/kg): 1040 ng/mL
- Oral BA (%) ([2]; oral 20 mg/kg): 7.42%
- T1/2 ([2]; oral 20 mg/kg): 46.2 min
- CC50 (PBMCs; read-out: CC50 (μM) [^3H-]TTP incorporation in: PBMC): > 500 µM

Structure (SMILES): Nc1nc2c(ncn2[C@H]2CO[C@@H](CO)O2)c(=O)[nH]1 [DXG, (−)-β-D -1,3-dioxolane guanine]
- CC50 (μM) [^3H-]TTP incorporation in: HepG2 (HepG-2): >500/250
- CC50 (μM) [^3H-]TTP incorporation in: Molt-4 (Molt-4): >500/250
- CC50 (μM) [^3H-]TTP incorporation in: U-145 (DU-145): >500/250
- CC50 (HSF; read-out: CC50 (μM) [^3H-]TTP incorporation in: HSF): ≥ 500 µM
- CC50 (μM) [^3H-]TTP incorporation in: HT1080 (HT1080): >500/250
- CC50 (CBMCs): > 100 µM
- AUC ([2]; iv 5 mg/kg): 5150 ng·h/mL
- Cmax ([2]; iv 5 mg/kg): 29020 ng/mL
- T1/2 ([2]; iv 5 mg/kg): 37.2 min
- AUC ([2]; oral 20 mg/kg): 910 ng·h/mL
- Cmax ([2]; oral 20 mg/kg): 270 ng/mL
- Oral BA (%) ([2]; oral 20 mg/kg): 4.43%
- T1/2 ([2]; oral 20 mg/kg): 147 min
- CC50 (μM) [^3H-]TTP incorporation in: PBMC (PBMCs): >500/250
- EC50 (HIV-1IIIB): 0.065 ± 0.039 µM

Structure (SMILES): Nc1nc(NC2CCC2)c2ncn([C@H]3CO[C@@H](CO)O3)c2n1 [Cmpd B (−), (−)-(2R,4R)-2-hydroxymethyl-4-(2′-amino-6′-cyclobutylamino-purine-9′-yl)-1,3-dioxolane]
- Mice (50 mg/kg/d): body weight gaining effect [3]: No
- CC50 at 72 h ([4]; DU-145 cells, Table 4, read-out: CC50 (μM) [^3H-]TTP incorporation in: U-145): 200 µM
- CC50 at 72 h ([4]; HT1080 cells, Table 4, read-out: CC50 (μM) [^3H-]TTP incorporation in: HT1080): > 250 µM
- CC50 at 72 h ([4]; HepG2 cells, Table 4, read-out: CC50 (μM) [^3H-]TTP incorporation in: HepG2): > 250 µM
- CC50 at 72 h ([4]; Molt-4 cells, Table 4, read-out: CC50 (μM) [^3H-]TTP incorporation in: Molt-4): > 250 µM
- CC50 at 7 days [5]: > 100 µM
- half-life ([2]; male, plasma, iv 5 mg/kg): 18.6 min
- AUC ([2]; male, plasma, iv 5 mg/kg, read-out: AUC): 5600 ng·h/mL
- Cmax ([2]; male, plasma, iv 5 mg/kg, read-out: Cmax): 13300 ng/mL
- half-life ([2]; male, plasma, oral 20 mg/kg): 72 min
- AUC ([2]; male, plasma, oral 20 mg/kg, read-out: AUC): 3080 ng·h/mL
- Cmax ([2]; male, plasma, oral 20 mg/kg, read-out: Cmax): 1120 ng/mL
- Oral BA (%) ([2]; oral 20 mg/kg): 13.75%
- CC50 (μM) [^3H-]TTP incorporation in: PBMC (PBMCs): 80/90
